Measured values: EP4714948A1, “COMPOUND USED FOR EGFR PROTEIN DEGRADATION, AND USE THEREOF” (TYK Medicines, Inc., priority 2023, dated 2024)

Columns and labels:
H1975 = test: Cell antiproliferative assay (CTG, 72 h); assay type: cell-based; conditions: Homo sapiens, NCI-H1975, H1975 (EGFR T790M/L858R)
Protocol: (§1) H1975 has EGFR T790M/L858R dual mutation, PC-9 has EGFR exon 19 deletion mutation, and HCC827 has exon 19 deletion mutation. CellCounting Lite 2.0, Trypsin EDTA, 37 °C CO2 incubator, cell counter, EnVision Serial No.1050454.
(§2) • (A) Trypsin EDTA was used to digest log-phase cells, medium was added to terminate the digestion reaction, and a cell suspension was prepared by blowing and mixing with a pipette. • (B) Cell concentration was determined using Vi-cell, and a suspension of 15,000-25,000 cells per milliliter was made depending on the purpose of the experiment and the characteristics of the cells. • (C) After the cell suspension was ready, it was gently mixed and each well was added with 100µL so that the cell density to be tested was 1,500- 2,500 per well.
(§3) • A) About 2 mg of compound was weighed, and the volume of DMSO required was calculated according to the formula: compound mass (mg)*compound purity (%)/compound molecular weight*1000. • (B) The inoculated cell culture plates were incubated in an incubator. About 24 hours later, compounds were added at gradient concentrations. • (C) 10mM of compound reservoir solution was diluted to […] with medium, and […] of the compound solution was added sequentially to the second column of the deep-well plate, and […] of medium containing 0.5% DMSO was added to the third to eleventh columns. • D) Gradient dilution: 125 µl of solution was pipetted from the second column and added to the third column, after mixing; another 125 µl of solution was pipetted from the third column and added to the fourth column, and the operation was repeated until the tenth column. • (E) 25 µl of compound was pipetted from the deep-well plate into a 96-well culture plate using a multichannel pipette, and each compound was run in triplicate on the 96-well plate. A 1:4 concentration gradient was established on the 96-well plate, with a final highest concentration of 10,000 nM.
(§4) • (A) 96-well plates were incubated in an incubator for 72 h. The effect of the compounds was observed under an inverted microscope. • (B) 25 µl of CTG solution was added to each well. The plate was incubated on a shaker for 10 minutes and the OD value of each well was read.
(§5) The survival rate ( % Cell Viability) was calculated using the following formula: %Cell Viability = 100% × (Lum_Sample−Lum_LC)/(Lum_HC−Lum_LC) [formula] • Lum_HC: Cell reading of 0.1% DMSO control group • Lum_Sample: Cell readings of compound addition group • Lum_LC: Reading of blank medium • IC50 values were obtained by curve fitting using GraphPad Prism 8 software.

HCC827 = test: Cell antiproliferative assay (CTG, 72 h); assay type: cell-based; conditions: Homo sapiens, HCC827 (exon 19 deletion)
Protocol: as §1, §2, §3, §4, §5

PC-9 = test: Cell antiproliferative assay (CTG, 72 h); assay type: cell-based; conditions: Homo sapiens, PC-9 (EGFR exon 19 deletion)
Protocol: as §1, §2, §3, §4, §5

[1] = target: EGFR in BAF3-LTC (Baf3-L858R-T780M-C797S) (Homo sapiens, UniProt P00533, C797S/L858R/T790M); test: EGFR PROTAC HTRF experiment (total EGFR degradation); assay type: cell-based; conditions: BAF3-LTC cells, 16 hours incubation
Sequence of EGFR in BAF3-LTC (Baf3-L858R-T780M-C797S) (P00533 25-1210 T790M/C797S/L858R): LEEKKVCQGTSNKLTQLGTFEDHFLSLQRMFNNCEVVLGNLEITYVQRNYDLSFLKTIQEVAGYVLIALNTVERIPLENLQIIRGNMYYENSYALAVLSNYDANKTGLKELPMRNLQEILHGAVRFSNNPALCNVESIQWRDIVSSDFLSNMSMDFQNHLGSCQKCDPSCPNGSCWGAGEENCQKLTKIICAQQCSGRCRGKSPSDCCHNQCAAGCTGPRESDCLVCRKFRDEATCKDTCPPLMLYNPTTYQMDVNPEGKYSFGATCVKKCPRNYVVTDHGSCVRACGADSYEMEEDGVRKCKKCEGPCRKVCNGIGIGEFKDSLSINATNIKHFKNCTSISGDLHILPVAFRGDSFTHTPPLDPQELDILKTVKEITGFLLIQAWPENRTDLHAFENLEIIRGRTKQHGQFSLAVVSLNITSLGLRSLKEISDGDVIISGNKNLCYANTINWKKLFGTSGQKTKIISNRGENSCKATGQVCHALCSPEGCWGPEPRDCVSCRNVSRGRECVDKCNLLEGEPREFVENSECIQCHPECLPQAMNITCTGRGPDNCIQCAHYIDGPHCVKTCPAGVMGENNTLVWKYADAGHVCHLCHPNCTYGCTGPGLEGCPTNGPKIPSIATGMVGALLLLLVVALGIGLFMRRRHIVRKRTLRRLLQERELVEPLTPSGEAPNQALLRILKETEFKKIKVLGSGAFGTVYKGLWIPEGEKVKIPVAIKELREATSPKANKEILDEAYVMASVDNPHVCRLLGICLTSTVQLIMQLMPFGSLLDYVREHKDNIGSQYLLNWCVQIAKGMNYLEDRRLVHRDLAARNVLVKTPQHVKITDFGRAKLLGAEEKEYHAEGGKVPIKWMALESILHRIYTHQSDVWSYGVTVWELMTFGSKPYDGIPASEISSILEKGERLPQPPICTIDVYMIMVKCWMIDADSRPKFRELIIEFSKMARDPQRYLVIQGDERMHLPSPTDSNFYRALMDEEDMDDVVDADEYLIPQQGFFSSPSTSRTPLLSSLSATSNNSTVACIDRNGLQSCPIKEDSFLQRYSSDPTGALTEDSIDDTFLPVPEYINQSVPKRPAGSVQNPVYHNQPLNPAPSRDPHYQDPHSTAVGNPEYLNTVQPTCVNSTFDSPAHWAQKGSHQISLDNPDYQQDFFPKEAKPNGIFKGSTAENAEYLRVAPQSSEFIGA

[2] = target: EGFR in BAF3-DTC (Baf3-19del-T780M-C797S) (Homo sapiens, UniProt P00533, C797S/DEL746-750/T790M); test: as above; assay type: cell-based; conditions: BAF3-DTC cells, 16 hours incubation
Sequence of EGFR in BAF3-DTC (Baf3-19del-T780M-C797S) (P00533 with tags, fused parts or gaps DEL746-750/T790M/C797S): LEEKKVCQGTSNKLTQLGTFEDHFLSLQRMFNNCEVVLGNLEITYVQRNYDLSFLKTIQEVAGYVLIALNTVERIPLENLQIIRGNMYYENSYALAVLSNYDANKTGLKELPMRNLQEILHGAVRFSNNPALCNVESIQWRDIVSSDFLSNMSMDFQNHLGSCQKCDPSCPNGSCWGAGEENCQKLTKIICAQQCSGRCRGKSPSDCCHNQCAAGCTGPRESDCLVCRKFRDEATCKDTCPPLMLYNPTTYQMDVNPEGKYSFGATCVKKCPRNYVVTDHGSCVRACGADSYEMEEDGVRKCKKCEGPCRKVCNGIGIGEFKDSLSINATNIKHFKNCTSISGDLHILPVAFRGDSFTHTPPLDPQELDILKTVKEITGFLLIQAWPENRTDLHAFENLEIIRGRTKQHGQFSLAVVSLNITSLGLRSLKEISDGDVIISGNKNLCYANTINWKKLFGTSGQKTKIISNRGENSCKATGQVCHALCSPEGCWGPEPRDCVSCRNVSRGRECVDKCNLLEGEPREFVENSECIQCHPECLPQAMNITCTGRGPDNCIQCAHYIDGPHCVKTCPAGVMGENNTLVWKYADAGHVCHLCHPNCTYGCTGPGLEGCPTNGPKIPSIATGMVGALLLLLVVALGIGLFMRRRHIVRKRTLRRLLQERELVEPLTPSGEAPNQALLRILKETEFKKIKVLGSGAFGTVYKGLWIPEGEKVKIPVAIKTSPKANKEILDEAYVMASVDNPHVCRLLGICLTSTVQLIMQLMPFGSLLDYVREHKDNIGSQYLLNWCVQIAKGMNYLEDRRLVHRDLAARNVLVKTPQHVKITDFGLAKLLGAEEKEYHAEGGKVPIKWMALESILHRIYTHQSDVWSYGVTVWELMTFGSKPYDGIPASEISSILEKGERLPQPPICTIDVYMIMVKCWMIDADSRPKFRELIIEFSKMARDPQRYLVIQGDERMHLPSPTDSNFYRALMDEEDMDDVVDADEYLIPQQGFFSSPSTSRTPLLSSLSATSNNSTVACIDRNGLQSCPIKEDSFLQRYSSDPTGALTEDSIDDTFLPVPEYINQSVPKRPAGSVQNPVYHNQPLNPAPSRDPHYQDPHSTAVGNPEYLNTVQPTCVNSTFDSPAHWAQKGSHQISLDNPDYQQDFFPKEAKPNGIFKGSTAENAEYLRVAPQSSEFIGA

[3] = Pharmacokinetic test on male SD rats; assay type: in vivo; conditions: gavage (p.o.), 10 mg/kg, plasma; for AUC(0-inf) / AUC(0-t) / Cmax / MRT last / Tmax: rat, po
Protocol: Healthy adult SD rats, male, a total of 3, 6-8 weeks old; Weighing 200-300 grams.
EDTA-Na2 anticoagulant: 11.2 g of EDTA-Na2 was weighted and placed into a reagent bottle. 100 mL of physiological saline was added and the mixture was shaken until completely dissolved. After preparation, the solution was aliquoted into 1.5 mL centrifuge tubes, each containing approximately 20 uL, for use in whole blood sample collection.
Approximately 10 mg of the test sample was accurately weighed. DMSO accounting for 10% of the total volume was added to dissolve the sample. Subsequently, 0.5% MC solvent accounting for 90% of the total volume was slowly added while stirring. The mixture was sonicated and vortexed evenly, and a visually homogeneous preparation solution was obtained, with a concentration of 1 mg/mL. This solution should be freshly prepared immediately before use.
0.2 mL of the sample was pipetted into a 1.5 mL centrifuge tube and stored at -80°C for concentration analysis of the dosing solution.
Animals were kept in rat cages and fasted for no less than 10 hours on the day before the experiment, but were allowed to drink water. The animals were individually weighed and marked on their tails. Prior to dosing, blank blood samples were collected from each animal via the tail vein.
• Administration route: gavage (p.o.) • Dosage concentration: 1mg/ml • Dosage: 10 mg/kg • Dosage volume: 10 mL/kg
Operation process: The rat was grasped with a left hand protected by a bite-resistant glove and held in an upright position. The gavage needle was inserted through the mouth and advanced towards the pharynx. The needle was advanced gently, ensuring no significant resistance was felt. The drug was then injected into the stomach.
At 0.5 h, 1 h, 2 h, 4 h, 6 h, 8 h, 12 h, and 24 h post-dosing, 0.1-0.2 mL of whole blood was collected from each test animal into EDTA-Na2 anticoagulant tubes. The tubes were mixed by inverting 3-4 times. The samples were centrifuged at 2000 × g and 4 °C for 5 minutes. The upper plasma layer was to separated, promptly transferred to -80 °C for storage until analysis. The blood was collected via tail vein.
A quantitative detection method for the test compound was established using a Shimadzu liquid chromatography system and a Triple Quad™ 6500+ AB mass spectrometry (MS) system. This method was used to analyze the concentration of the parent drug in plasma. The variation of the analysis results was controlled using quality control (QC) samples, and the accuracy of the QC samples was required to be within the range of 80%-120%.
The main pharmacokinetic parameters were calculated using the non-compartmental model (NCA) with the WinNonlin Phoenix software. These parameters include: area under the concentration-time curve (AUC(0-t) and AUC(0-∞)), elimination half-life (T1/2), maximum plasma concentration (Cmax), and time to reach maximum plasma concentration (Tmax), etc.

Row | IC50 (H1975) | IC50 (HCC827) | IC50 (PC-9) | DC50 [1] | Dmax [1] | DC50 [2] | Dmax [2] | HL_ [3] | AUC(0-inf) [3] | AUC(0-t) [3] | Cmax [3] | MRT last [3] | Tmax [3] | Compound
1 | < 10 nM | 100 to 1000 nM | 100 to 1000 nM | 10 to 100 nM | 70 to 100% | 10 to 100 nM | 70 to 100% | 4.39 h | 11300 ng·h/mL | 11000 ng·h/mL | 1020 ng/mL | 7.78 h | 4 h | CCc1cc(Nc2ncc(Cl)c(Nc3ccccc3C(=O)NC)n2)c(OC)cc1N1CCN(C(=O)CN2CCC(c3ccc(NC4CCC(=O)NC4=O)cc3F)CC2)CC1 (centres unmarked) [Compound T-067]
2 | 10 to 100 nM | 100 to 1000 nM | 100 to 1000 nM | 100 to 1000 nM | 50 to 70% | 100 to 1000 nM | 50 to 70% | 2.61 h | 24400 ng·h/mL | 24000 ng·h/mL | 2290 ng/mL | 7.49 h | 2.67 h | CCc1cc(Nc2ncc(Cl)c(Nc3ccccc3C(=O)NC)n2)c(OC)cc1N1CCN(C(=O)CC2(O)CCN(c3ccc(NC4CCC(=O)NC4=O)cc3F)CC2)CC1 (centres unmarked) [Compound T-037]
3 | 10 to 100 nM | 100 to 1000 nM | 100 to 1000 nM | 100 to 1000 nM | 70 to 100% | 10 to 100 nM | 50 to 70% | 2.51 h | 8210 ng·h/mL | 7900 ng·h/mL | 1010 ng/mL | 5.65 h | 4.67 h | CCc1cc(Nc2ncc(Cl)c(Nc3ccccc3C(=O)NC)n2)c(OC)cc1N1CCN(C(=O)CN2CCN(c3ccc(NC4CCC(=O)NC4=O)cc3F)CC2)CC1 (centres unmarked) [Compound T-029]
4 | < 10 nM | 10 to 100 nM | 100 to 1000 nM | 100 to 1000 nM | 70 to 100% | 100 to 1000 nM | 70 to 100% | – | – | – | – | – | – | CNC(=O)c1ccccc1Nc1nc(Nc2cc(C)c(N3CCN(CCN4CCC(c5ccc(NC6CCC(=O)NC6=O)cc5)CC4)CC3)cc2OC)ncc1Cl (centres unmarked) [Compound T-021]
5 | < 10 nM | 10 to 100 nM | 100 to 1000 nM | 10 to 100 nM | 70 to 100% | 10 to 100 nM | 70 to 100% | 9.28 h | 76300 ng·h/mL | 61600 ng·h/mL | 4060 ng/mL | 10 h | 6 h | CCc1cc(Nc2ncc(Cl)c(Nc3ccccc3C(=O)NC)n2)c(OC)cc1N1CCN(CCN2CCC(c3ccc(NC4CCC(=O)NC4=O)cc3)CC2)CC1 (centres unmarked) [Compound T-023]
